# Measurements as given in ChEMBL document CHEMBL5257075, “Design, synthesis and biological evaluation of quinazoline SOS1 inhibitors” (Bioorg Med Chem Lett, 2023).
# Assays:
# K562 = test: Antiproliferative activity against human K562 cells assessed as inhibition of cell proliferation; assay type: functional, cell-based
# [1] = molecular target: T1, Son of sevenless homolog 1 (Homo sapiens) (UniProt Q07889); test: Inhibition of SOS1 (unknown origin) at 500 nM
# T1 sequence (whole entry): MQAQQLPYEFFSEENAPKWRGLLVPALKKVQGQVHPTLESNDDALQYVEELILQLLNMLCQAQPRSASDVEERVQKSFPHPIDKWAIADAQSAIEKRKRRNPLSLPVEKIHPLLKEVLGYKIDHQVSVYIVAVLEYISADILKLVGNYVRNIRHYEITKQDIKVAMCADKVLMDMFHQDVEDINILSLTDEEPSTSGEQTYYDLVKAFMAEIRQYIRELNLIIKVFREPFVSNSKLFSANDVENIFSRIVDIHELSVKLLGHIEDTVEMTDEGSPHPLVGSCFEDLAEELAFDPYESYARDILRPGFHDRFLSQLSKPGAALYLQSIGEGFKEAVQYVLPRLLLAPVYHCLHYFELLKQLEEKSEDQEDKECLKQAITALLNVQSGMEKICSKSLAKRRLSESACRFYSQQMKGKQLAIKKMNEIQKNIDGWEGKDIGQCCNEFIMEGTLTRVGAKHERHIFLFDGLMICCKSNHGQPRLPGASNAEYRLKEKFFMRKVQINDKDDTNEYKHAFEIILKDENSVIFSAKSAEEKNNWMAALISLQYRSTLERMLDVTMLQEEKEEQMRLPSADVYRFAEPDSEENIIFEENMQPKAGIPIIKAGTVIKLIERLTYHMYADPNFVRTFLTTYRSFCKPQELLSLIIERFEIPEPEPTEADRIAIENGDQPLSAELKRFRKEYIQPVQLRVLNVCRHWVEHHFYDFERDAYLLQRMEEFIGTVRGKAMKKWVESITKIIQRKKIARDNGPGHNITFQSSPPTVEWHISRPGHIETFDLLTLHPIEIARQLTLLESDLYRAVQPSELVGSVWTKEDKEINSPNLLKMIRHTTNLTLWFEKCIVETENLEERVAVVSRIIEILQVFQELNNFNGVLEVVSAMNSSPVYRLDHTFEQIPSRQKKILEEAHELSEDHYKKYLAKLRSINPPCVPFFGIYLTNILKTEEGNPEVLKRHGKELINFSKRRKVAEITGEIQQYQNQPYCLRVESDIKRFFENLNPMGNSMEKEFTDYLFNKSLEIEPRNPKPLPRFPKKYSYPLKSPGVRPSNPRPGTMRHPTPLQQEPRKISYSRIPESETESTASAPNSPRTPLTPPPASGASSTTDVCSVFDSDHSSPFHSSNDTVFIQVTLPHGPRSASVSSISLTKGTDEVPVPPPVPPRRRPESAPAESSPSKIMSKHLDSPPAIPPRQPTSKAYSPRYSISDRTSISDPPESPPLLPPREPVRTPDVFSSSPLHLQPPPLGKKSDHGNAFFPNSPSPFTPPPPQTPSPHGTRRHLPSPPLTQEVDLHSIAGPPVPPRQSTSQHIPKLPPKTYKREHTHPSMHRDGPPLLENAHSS
# [2] = molecular target: T2, Son of sevenless homolog 1 (Homo sapiens, UniProt Q07889); test: Inhibition of SOS1 (unknown origin)
# T2 sequence (Q07889 whole entry): T1 sequence (whole entry)
# [3] = molecular target: Epidermal growth factor receptor (Homo sapiens) (UniProt P00533); test: Inhibition of wild type EGFR (unknown origin) at 5000 nM
# NCI-H838 = test: Antiproliferative activity against human NCI-H838 cells assessed as inhibition of cell proliferation; assay type: functional, cell-based
# Sequence of Epidermal growth factor receptor (Homo sapiens) (P00533 whole entry): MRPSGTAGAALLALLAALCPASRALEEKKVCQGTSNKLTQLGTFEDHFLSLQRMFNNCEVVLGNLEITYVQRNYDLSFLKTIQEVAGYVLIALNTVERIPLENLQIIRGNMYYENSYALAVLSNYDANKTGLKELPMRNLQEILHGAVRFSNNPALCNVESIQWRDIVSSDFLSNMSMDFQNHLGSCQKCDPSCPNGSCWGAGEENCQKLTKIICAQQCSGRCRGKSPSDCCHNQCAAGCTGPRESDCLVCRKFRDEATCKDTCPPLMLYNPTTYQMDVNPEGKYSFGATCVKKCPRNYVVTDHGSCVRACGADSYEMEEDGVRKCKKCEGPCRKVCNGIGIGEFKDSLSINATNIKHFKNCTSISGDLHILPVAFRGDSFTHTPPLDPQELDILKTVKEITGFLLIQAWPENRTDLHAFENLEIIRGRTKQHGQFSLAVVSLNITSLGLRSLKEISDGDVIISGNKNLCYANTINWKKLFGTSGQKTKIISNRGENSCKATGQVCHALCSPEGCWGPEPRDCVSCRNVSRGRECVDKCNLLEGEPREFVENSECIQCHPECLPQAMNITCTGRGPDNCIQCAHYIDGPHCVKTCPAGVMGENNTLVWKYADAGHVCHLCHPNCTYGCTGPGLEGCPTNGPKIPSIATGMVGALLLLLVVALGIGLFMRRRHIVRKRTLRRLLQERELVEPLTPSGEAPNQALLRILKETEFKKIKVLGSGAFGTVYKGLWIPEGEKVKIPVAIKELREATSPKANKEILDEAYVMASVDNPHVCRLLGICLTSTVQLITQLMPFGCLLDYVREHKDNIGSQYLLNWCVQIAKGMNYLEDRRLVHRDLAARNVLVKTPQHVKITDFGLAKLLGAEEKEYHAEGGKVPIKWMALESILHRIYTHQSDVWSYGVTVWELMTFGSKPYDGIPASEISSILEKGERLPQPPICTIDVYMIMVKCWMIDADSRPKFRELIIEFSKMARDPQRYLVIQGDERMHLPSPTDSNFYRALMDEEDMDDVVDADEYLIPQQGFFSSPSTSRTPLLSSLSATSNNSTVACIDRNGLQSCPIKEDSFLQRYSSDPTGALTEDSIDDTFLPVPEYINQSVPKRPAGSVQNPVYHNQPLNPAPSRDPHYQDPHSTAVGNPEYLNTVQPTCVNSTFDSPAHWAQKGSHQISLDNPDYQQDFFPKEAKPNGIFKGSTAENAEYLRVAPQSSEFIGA
Compound,IC50 (K562) [nM],inhibition [1] [%],IC50 [2] [nM],inhibition [3] [%],IC50 (NCI-H838) [nM]
CNCc1ccccc1-c1csc(C(C)Nc2nc(C)nc3cc4c(cc23)OCCO4)c1 (racemic),3490,81.4,27,,
COc1cc2ncnc(NC(C)c3cc(-c4ccccc4CNCCO)cs3)c2cc1OC (racemic),4050,97.5,18,,
Cc1nc(NC(C)c2cc(-c3ccccc3CNCCO)cs2)c2cc3c(cc2n1)OCCO3 (racemic),2480,85.1,45,,
CNCc1ccccc1-c1csc(C(C)Nc2ncnc3cc(OC)c(OC)cc23)c1 (racemic),2210,99,20,38.1,> 25000
CNCc1ccccc1-c1csc(C(C)Nc2ncnc3cc4c(cc23)OCCO4)c1 (racemic),2870,78.5,97,22.2,> 25000
COc1cc2ncnc(NC(C)c3ccc(-c4ccccc4CNCCO)s3)c2cc1OC (racemic),890,99.1,8.5,20.7,> 25000
CC(Nc1ncnc2cc3c(cc12)OCCO3)c1cc(-c2ccccc2CNCCO)cs1 (racemic),,80.2,,,
CC(Nc1ncnc2cc3c(cc12)OCCO3)c1ccc(-c2ccccc2CNCCO)s1 (racemic),,79.4,,,
CNCc1ccccc1-c1ccc(C(C)Nc2nc(C)nc3cc4c(cc23)OCCO4)s1 (racemic),,77.3,,,
CNCc1ccccc1-c1ccc(C(C)Nc2ncnc3cc(OC)c(OC)cc23)s1 (racemic),,98.7,,,
CNCc1ccccc1-c1ccc(C(C)Nc2ncnc3cc4c(cc23)OCCO4)s1 (racemic),,75.9,,,
COc1cc2ncnc(NC(C)c3cc(-c4ccccc4C(N)=O)cs3)c2cc1OC (racemic),,33.7,,,
COc1cc2ncnc(NC(C)c3cc(-c4ccccc4N)cs3)c2cc1OC (racemic),,61,,,
COc1cc2ncnc(NC(C)c3cc(-c4ccccc4O)cs3)c2cc1OC (racemic),,65.7,,,
COc1cc2ncnc(NC(C)c3ccc(-c4ccccc4C(N)=O)s3)c2cc1OC (racemic),,38.7,,,
COc1cc2ncnc(NC(C)c3ccc(-c4ccccc4N)s3)c2cc1OC (racemic),,75.2,,,
COc1cc2ncnc(NC(C)c3ccc(-c4ccccc4O)s3)c2cc1OC (racemic),,43.9,,,
Cc1nc(NC(C)c2ccc(-c3ccccc3CNCCO)s2)c2cc3c(cc2n1)OCCO3 (racemic),,89.1,,,
CNCc1ccccc1-c1csc([C@@H](C)Nc2nc(C)nc3cc(OC)c(OC)cc23)c1 [BAY-293],230,,,,
